According to US20260108447A1, “RESIDENT-SKIN-FLORA-IMPROVING AGENT AND EXTERNAL-USE COMPOSITION FOR SKIN” (NIHON SHOKUHIN KAKO CO., LTD., priority 2022, published 2026):

What was measured:
Experiment in all cases: Change in bacteria count (bacterial turbidity OD660) when the sugar is added to the culture medium
Type in all cases: cell-based
[1] = test system: Staphylococcus epidermidis (JCM20345); conditions: 24 hours
Method: (§1) An investigation was conducted in regard to a change in bacteria count when the α-gluco-oligosaccharide or the β-gluco-oligosaccharide prepared as described above was added to a culture medium and culturing was carried out in culturing of the various bacteria indicated in table 3 as resident skin bacteria under respectively suitable culture conditions.
(§2) Specifically, the various bacteria were cultured overnight using respectively suitable culture media to prepare preculture solutions, and the α-gluco-oligosaccharide or the β-gluco-oligosaccharide prepared as described above was added to 3 mL of fresh culture media so as to reach a final concentration of 0.5 (w/v) %, whereupon 0.03 ml of the preculture liquids was mixed thereinto and cultured for 24 hours, and the bacterial turbidity (OD660) after culturing was measured. Additionally, glucose was added as a sugar to a culture medium and similar tests were performed to arrive at a comparative control. The results were expressed as relative values (percentage relative to non-sugar-added group), where 100% indicated the bacterial turbidity when sterilized ultrapure water was added instead of any sugar.
Specifically, the effect for promoting proliferation of S. epidermidis was evaluated in the same manner as in test example 1, except that sophorose, laminaribiose, or gentiobiose prepared at high purity as described above was used as the sugar to be added to the culture medium, and the amount of the sugar added to the culture medium was set to 0.3 (w/v) % or 0.5 (w/v) % in terms of the final concentration.
The effect for promoting proliferation of S. epidermidis was evaluated in the same manner as in test example 2, except that sophorose prepared at high purity as described above was used as the β-gluco-oligosaccharide composed of disaccharides, and the amount of the sophorose added to the culture medium was set to 0.1 (w/v) % or 1.0 (w/v) % in terms of the final concentration.

[2] = test system: Micrococcus luteus (JCM1464); conditions: 24 hours; for proliferation of M. luteus, relative value (percentage relative to non-sugar-added group): test example 5, final concentration 0.5 (w/v) %, OD660, FIG. 5
Method: as §1, §2
(§3) The effect for promoting proliferation of S. hominis, S. aureus, C. acnes, C. xerosis, or M. luteus was evaluated in the same manner as in test example 1, except that sophorose prepared at high purity as described above was used as the β-gluco-oligosaccharide composed of disaccharides, and the amount of the sophorose added to the culture medium was set to 0.1 (w/v) %, 0.5 (w/v) %, or 1.0 (w/v) % in terms of final concentration.
(§4) The effect for promoting proliferation of S. hominis, S. aureus, C. acnes, C. xerosis, or M. luteus was evaluated in the same manner as in test example 1, except that laminaribiose and gentiobiose prepared at high purity as described above, as well as commercially available cellobiose (Nacalai Tesque, Inc.), were used as the β-gluco-oligosaccharide composed of disaccharides, and the amount of the β-gluco-oligosaccharide added to the culture medium was set to 0.5 (w/v) % in terms of final concentration.

[3] = test system: Staphylococcus hominis (JCM31912); conditions: 24 hours; for effect for promoting proliferation: test example 5, FIG. 5, sentence names no bacterium, taken as S. hominis; for proliferation of S. hominis, relative value (percentage relative to non-sugar-added group): test example 4, OD660, FIG. 4
Method: as §1, §2, §3, §4

[4] = test system: Corynebacterium xerosis (JCM1971); conditions: test example 4; at any of 0.1, 0.5, 1.0 (w/v) %, 24 hours; FIG. 4
Method: as §1, §2, §3, §4

[5] = test system: Staphylococcus aureus (ATCC6538); conditions: 24 hours
Method: as §1, §2, §3, §4

[6] = test system: Cutibacterium acnes (JCM6425); conditions: test example 4; at any of 0.1, 0.5, 1.0 (w/v) %, 24 hours; FIG. 4
Method: as §1, §2, §3, §4

[7] = test example 2, high-purity sugar 0.3 (w/v) % or 0.5 (w/v) % final concentration, FIG. 2
[8] = final concentration 0.5 (w/v) %
[9] = test example 4, at any of 0.1, 0.5, 1.0 (w/v) %, FIG. 4

Row | Compound | effect for promoting proliferation of S. epidermidis [1, 7] | proliferation of M. luteus, relative value (percentage relative to non-sugar-added group) [2] [%] | effect for promoting proliferation [3, 8] | effect for promoting proliferation of S. epidermidis ([1]; test example 3, final concentration 0.1 (w/v) %, FIG. 3) | effect for promoting proliferation of S. epidermidis, compared with 0.5 (w/v) % of test example 2 ([1]; test example 3, final concentration 1.0 (w/v) %, FIG. 3) | effect for promoting proliferation of M. luteus relative to the control [2, 9] | effect for promoting proliferation of C. xerosis relative to the control [4] | effect for promoting proliferation of S. aureus relative to the control [5, 9] | effect for promoting proliferation of C. acnes relative to the control [6] | proliferation of S. hominis, relative value (percentage relative to non-sugar-added group) [3, 8] [%] | proliferation of S. hominis, relative value (percentage relative to non-sugar-added group) ([3]; final concentration 1.0 (w/v) %) [%] | proliferation of S. aureus, relative value (percentage relative to non-sugar-added group) ([5]; test example 5, final concentration 0.5 (w/v) %, OD660, FIG. 5) [%]
1 | gentiobiose | did not exhibit an effect for promoting proliferation | 121.9 | not confirmed to yield an effect for promoting proliferation | – | – | – | – | – | – | – | – | –
2 | O=C[C@H](O[C@@H]1O[C@H](CO)[C@@H](O)[C@H](O)[C@H]1O)[C@@H](O)[C@H](O)[C@H](O)CO [sophorose, 2-O-β-D-glucopyranosyl-D-glucose] | prominent effect for promoting proliferation | – | – | exhibit the effect for promoting proliferation | no great difference was observed | no effect for promoting proliferation | no effect for promoting proliferation | no effect for promoting proliferation | no effect for promoting proliferation | 118.0 | 118.8 | –
3 | O=C[C@H](O)[C@@H](O)[C@H](O[C@@H]1O[C@H](CO)[C@@H](O)[C@H](O)[C@H]1O)[C@H](O)CO [cellobiose] | – | 111.7 | not confirmed to yield an effect for promoting proliferation | – | – | – | – | – | – | – | – | –
4 | OC[C@H]1O[C@@H](O[C@H]2[C@H](O)[C@@H](CO)OC(O)[C@@H]2O)[C@H](O)[C@@H](O)[C@@H]1O (some centres unmarked) [laminaribiose, reference compound] | did not exhibit an effect for promoting proliferation | – | not confirmed to yield an effect for promoting proliferation | – | – | – | – | – | – | – | – | 108.5
